Reference: PubChem BioAssay (NCI)
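These data come from cells grown in 96-well plates and exposed to compound for 48 hours at five concentrations. GI50 marks 50% less growth. TGI marks complete inhibition of growth.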

Columns and labels:
Assay in all cases: NCI anticancer screen, dose series, 48 h
[1] = tested on: HS 578T breast
[2] = tested on: OVCAR-3 ovarian
[3] = tested on: SNB-19 CNS
[4] = tested on: MALME-3M melanoma
[5] = tested on: U251 CNS
[6] = tested on: RXF 393 renal
[7] = tested on: MCF7 breast
[8] = tested on: SW-620 colon
[9] = tested on: OVCAR-8 ovarian
[10] = tested on: HOP-92 NSCLC
[11] = tested on: MDA-MB-435
[12] = tested on: IGROV1 ovarian
[13] = tested on: SK-MEL-28 melanoma
[14] = tested on: SF-295 CNS
[15] = tested on: HCC-2998 colon
[16] = tested on: HT29 colon
[17] = tested on: TK-10 renal
[18] = tested on: 786-0 renal
[19] = tested on: MDA-MB-231 breast
[20] = tested on: A549 NSCLC
[21] = tested on: OVCAR-4 ovarian
[22] = tested on: T-47D breast
[23] = tested on: SN12C renal
[24] = tested on: COLO 205 colon
[25] = tested on: SK-MEL-2 melanoma
[26] = tested on: NCI/ADR-RES ovarian
[27] = tested on: SK-OV-3 ovarian
[28] = tested on: PC-3 prostate
[29] = tested on: SK-MEL-5 melanoma
[30] = tested on: UO-31 renal
[31] = tested on: HCT-116 colon
[32] = tested on: SF-539 CNS
[33] = tested on: RPMI-8226 leukemia
[34] = tested on: MOLT-4 leukemia
[35] = tested on: A498 renal
[36] = tested on: NCI-H522 lung
[37] = tested on: EKVX NSCLC
[38] = tested on: OVCAR-5 ovarian
[39] = tested on: KM12 colon
[40] = tested on: SR leukemia
[41] = tested on: CCRF-CEM leukemia
[42] = tested on: UACC-257 melanoma
[43] = tested on: ACHN renal
[44] = tested on: M14 melanoma
[45] = tested on: HOP-62 NSCLC
[46] = tested on: NCI-H226 lung
[47] = tested on: CAKI-1 renal
[48] = tested on: NCI-H23 lung
[49] = tested on: K-562 leukemia
[50] = tested on: SNB-75 CNS
[51] = tested on: BT-549 breast
[52] = tested on: HCT-15 colon
[53] = tested on: LOX IMVI melanoma
[54] = tested on: UACC-62 melanoma
[55] = tested on: SF-268 CNS
[56] = tested on: NCI-H460 lung
[57] = tested on: DU-145 prostate
[58] = tested on: HL-60(TB) leukemia

## Nc1nc(-c2ccc(F)cc2)c(-c2ccc3ncccc3n2)s1
[1]
  GI50: 9.61 µM
  TGI: > 25 µM
[2]
  GI50: 12.7 µM
  TGI: > 25 µM
[3]
  GI50: > 25 µM
  TGI: > 25 µM
[4]
  GI50: 19.6 µM
  TGI: > 25 µM
[5]
  GI50: > 24.1 µM
  TGI: > 25 µM
[6]
  GI50: 12.3 µM
  TGI: > 25 µM
[7]
  GI50: 9 µM
  TGI: > 25 µM
[8]
  GI50: > 25 µM
  TGI: > 25 µM
[9]
  GI50: 15.6 µM
  TGI: > 25 µM
[10]
  GI50: 0.268 µM
  TGI: 24.6 µM
[11]
  GI50: > 25 µM
  TGI: > 25 µM
[12]
  GI50: 5.44 µM
  TGI: > 20.9 µM
[13]
  GI50: > 25 µM
  TGI: > 25 µM
[14]
  GI50: > 21 µM
  TGI: > 25 µM
[15]
  GI50: > 25 µM
  TGI: > 25 µM
[16]
  GI50: 16.3 µM
  TGI: > 25 µM
[17]
  GI50: 5.62 µM
  TGI: 17.1 µM
[18]
  GI50: 16.9 µM
  TGI: > 25 µM
[19]
  GI50: > 25 µM
  TGI: > 25 µM
[20]
  GI50: 13.7 µM
  TGI: > 25 µM
[21]
  GI50: 16.6 µM
  TGI: > 25 µM
[22]
  GI50: 4.32 µM
  TGI: > 25 µM
[23]
  GI50: 10.1 µM
  TGI: > 25 µM
[24]
  GI50: > 25 µM
  TGI: > 25 µM
[25]
  GI50: > 25 µM
  TGI: > 25 µM
[26]
  GI50: 21.7 µM
  TGI: > 25 µM
[27]
  GI50: 6.82 µM
  TGI: > 25 µM
[28]
  GI50: 13.5 µM
  TGI: > 25 µM
[29]
  GI50: 13.1 µM
  TGI: > 25 µM
[30]
  GI50: 4.68 µM
  TGI: > 25 µM
[31]
  GI50: > 25 µM
  TGI: > 25 µM
[32]
  GI50: 14.4 µM
  TGI: > 25 µM
[33]
  GI50: > 19.8 µM
  TGI: > 25 µM
[34]
  GI50: 17.4 µM
  TGI: > 25 µM
[35]
  GI50: 3.83 µM
  TGI: 19.4 µM
[36]
  GI50: 8.31 µM
  TGI: > 25 µM
[37]
  GI50: 11.2 µM
  TGI: > 25 µM
[38]
  GI50: 14.1 µM
  TGI: > 25 µM
[39]
  GI50: > 25 µM
  TGI: > 25 µM
[40]
  GI50: > 25 µM
  TGI: > 25 µM
[41]
  GI50: > 22.1 µM
  TGI: > 25 µM
[42]
  GI50: > 25 µM
  TGI: > 25 µM
[43]
  GI50: 8.33 µM
  TGI: > 25 µM
[44]
  GI50: > 25 µM
  TGI: > 25 µM
[45]
  GI50: 24.9 µM
  TGI: > 25 µM
[46]
  GI50: 11.8 µM
  TGI: > 25 µM
[47]
  GI50: 9.27 µM
  TGI: > 25 µM
[48]
  GI50: 15.6 µM
  TGI: > 25 µM
[49]
  GI50: > 18.5 µM
  TGI: > 25 µM
[50]
  GI50: 5.04 µM
  TGI: > 25 µM
[51]
  GI50: 16.1 µM
  TGI: > 25 µM
[52]
  GI50: 14.1 µM
  TGI: > 25 µM
[53]
  GI50: 18 µM
  TGI: > 25 µM
[54]
  GI50: > 23.2 µM
  TGI: > 25 µM
[55]
  GI50: 16.5 µM
  TGI: > 25 µM
[56]
  GI50: 8.7 µM
  TGI: > 25 µM
[57]
  GI50: 14.1 µM
  TGI: > 25 µM
[58]
  GI50: > 25 µM
  TGI: > 25 µM
